What all share (assay type): in vivo
In series [1] the test system is Neutrophil Count (ANC). The experiment in a line: Lookup table: marker validity (nadir) window, Neutrophil Count (ANC). As to conditions: days elapsed between current dose and marker; for Neutrophil Count (ANC) LL: lower limit of nadir range; for Neutrophil Count (ANC) UL: upper limit of nadir range. The source says: (§1) A lookup table has been constructed (see above example), in the form of a table, to represent the relationship of each trial Agent and its qualified Clinical Markers. This table includes information regarding the Maximum Dose and the Inverse Marker Applicability for each Agent. The gray cells on the Cycle Dose Modifier indicate these values.
(§2) The table also includes information regarding the nadir of applicability for each Agent—Marker combination. The range, in days and indicated as the Lower Limit and Upper limit, has been determined by calculating a percentage (20%) above and below the true nadir value when only a single value is known. Otherwise, the upper and lower nadir values are used. […] The values of Upper and Lower limits is shown as a property of the Association between Markers and Agents. The Relevancy of a Marker can be computed using the lookup table by comparing the number of days elapsed between the date of the application of the current dose and the date on which the Marker was taken to the upper and lower values for that Agent Marker Association. If the elapsed days are greater than or equal to the lower limit and less than or equal to the upper limit, then the calculations provided by the Cycle Dose Modifier are said to be relevant and thereby applicable as indicated in the yellow Marker Validity cell. The Relevancy of Cycle Dose Modifier Calculations for Agent 1 is based on the Validity of Marker for Agent 1 calculated by: =IF(and((($B13−B6)>=VLOOKUP(B$3,Validity!$A$3:$K$8,10)),((B$13−B6)<=VLOOKUP(B$3,Validity!$A$3:$K$8,11))),“valid”,“invalid”)

Series [2] has as its system Platelets. The series can be described thus: Lookup table: marker validity (nadir) window, Platelets. The note with it: days elapsed between current dose and marker; for Platelets LL: lower limit of nadir range; for Platelets UL: upper limit of nadir range.
From the text: as §1, §2

Series [3] relates to Hemoglobin (Hgb). The experiment in a line: Lookup table: marker validity (nadir) window, Hemoglobin (Hgb). The note with it: days elapsed between current dose and marker; for Hemoglobin (Hgb) LL: lower limit of nadir range; for Hemoglobin (Hgb) UL: upper limit of nadir range.
From the text: as §1, §2

The test system of series [4] is LDL. The series can be described thus: Non-Pharm Example 1: doublet Lipitor and aerobics, LDL marker. The text has this: (§3) Efficacy/Toxicity Determinant Agent 2 (Gemzar) (ETD2) is a value determined by the prescriber. Set at an initial value of 1, this value is then adjusted based upon actual case scenarios with a full data set to adjust the value to identify the contribution to the toxicity or efficacy until the actual value is achieved. It can be used to modify dose based upon non-pharmacologic effects such as diet, exercise and activity as determined by the prescriber. A non-pharmacologic two-part combination therapy example could include a cholesterol lowering agent and exercise or cholesterol lowering agent and a restrictive diet. In place of dose the exercise value would be measured in ‘METS’ (Metabolic Equivalent of oxygen consumption) or the dietary prescription in calories or grams of fat or cholesterol.
Doublet Agent One: Pharmacologic, Agent Two:Non-Pharmacologic (Exercise)

In series [5] the test system is LDL. The series can be described thus: Non-Pharm Example 2: triplet Lipitor, aerobics and diet, LDL marker.
From the text: as §3, with “Set” for “Efficacy/Toxicity Determinant Agent 2 (Gemzar) (ETD2) is a value determined by the prescriber. Set”, “three-part” for “two-part”, “agent,” for “agent and”, “exercise” for “exercise or cholesterol lowering agent”, “of” for “of fat or”
Triplet, Agent One: Pharmacologic, Agent Two: Non-Pharmacologic (Exercise), Agent Three: Diet (Grams of Cholesterol)

Series [6] deals with INR. The experiment in a line: Single agent cycle dose modifier, warfarin sodium patient example. The note with it: for Current Level of Efficacy/CLTE: current cycle total dose 57, dose Oct. 21, marker Oct. 26, 2004; for Previous Level of Efficacy/PLTE: previous cycle total dose 60, seven-day cycle. The text has this: Warfarin Sodium (coumadin) is used in this example as a single agent. Table 1 illustrates a method of revising a drug dose in treating a patient with one pharamcologic […] modality to optimize pharmacologic outcome and to reduce the risk of an adverse drug event while assessing the clinical relevancy and validity of the measured surrogate marker.
In Table 1, Previous Cycle Total Dose (PCTD) is a value directly entered without new calculation. It is the cumulative amount of the agent administered during the previous treatment cycle as defined by the total amount of drug given over a fixed period of time, such as in chemotherapy, the total amount, e.g., mg/m^2, administered throughout the defined regimen period. In this single agent therapy example for chronic disease management, that is, prevention of venous thrombosis with warfarin sodium, the cycle becomes the total amount of warfarin sodium, in milligrams, administered over a seven-day period. The period is determined when the modifier is constructed.
Previous Level of Toxicity-Efficacy (PLTE) is a value directly entered such as from a lab report. It is the numerical value of a marker of toxicity or efficacy reported at the previous dose cycle adjustment (evaluated at a specified elapsed time sufficient to capture the nadir of the dose effect). The surrogate marker is selected when the dose modifier is constructed.
Current Level of Toxicity-Efficacy (CLTE) is also a value directly entered such as from a lab report. It is the numerical value of the marker of toxicity or efficacy reported with the current dose cycle. The surrogate marker is that value that illustrates the expression of the toxicity or efficacy of the agent on a specific and pre-selected value determined when the dose modifier is constructed. The value is selected based upon the agent, its pharmacologic properties and the disease condition under treatment. The confidence or validity of the marker is based upon its maturity of effect in that a nadir or cycle of effect is dynamic and may vary based upon the time span between receipt of the agent and sampling of the value. Therefore the value may be valid or invalid based upon this timing factor. If invalid, then the dose adjustment cannot be made. If valid, then the value is fully appreciated and the dose modification can be calculated. The surrogate marker is selected when the dose modifier is constructed.
Expected Current Level (ECL) is a comparative operator used to illustrate the mathematical expectation of the patient's response to the actual patient response to classify their individual response characteristics. […]

Here are results for six compounds from US20050154537A1, “Methods, program products, and systems for single and multi-agent dosing and other related methods” (priority 2003, published 2005).

`N.N.O=C([O-])C1(C(=O)[O-])CCC1.[Pt+2]` [Carboplatin]: in series [1], the “Neutrophil Count (ANC) LL” value is 17 days and the “Neutrophil Count (ANC) UL” value is 25 days. In series [2], the “Platelets LL” value stood at 17 days and the “Platelets UL” value is 25 days. In series [3], the “Hemoglobin (Hgb) LL” value was determined as 14 days and the “Hemoglobin (Hgb) UL” value stood at 21 days.
Regarding `CC(=O)O[C@@]12CO[C@@H]1C[C@H](O)[C@@]1(C)C(=O)[C@H](O)C3=C(C)[C@@H](OC(=O)[C@H](O)[C@@H](NC(=O)OC(C)(C)C)c4ccccc4)C[C@@](O)([C@@H](OC(=O)c4ccccc4)[C@H]21)C3(C)C` [Taxotere], in series [1], the “Neutrophil Count (ANC) LL” value is recorded as 6 days and the “Neutrophil Count (ANC) UL” value is recorded as 8 days. Further, in series [2], the “Platelets LL” value is 6 days and the “Platelets UL” value was 8 days. Also, in series [3], the “Hemoglobin (Hgb) LL” value was 8 days and the “Hemoglobin (Hgb) UL” value came to 11 days.
In the case of `N.N.[Cl][Pt][Cl]` [Cisplatin], in series [1], the “Neutrophil Count (ANC) LL” value is reported as 18 days and the “Neutrophil Count (ANC) UL” value is listed as 23 days. In addition, in series [2], the “Platelets LL” value is reported as 18 days and the “Platelets UL” value is recorded as 23 days. Besides, in series [3], the “Hemoglobin (Hgb) LL” value is given as 18 days and the “Hemoglobin (Hgb) UL” value stood at 23 days.
Consider `Nc1ccn([C@@H]2O[C@H](CO)[C@@H](O)C2(F)F)c(=O)n1` [Gemzar], for which, in series [1], the “Neutrophil Count (ANC) LL” value was found to be 7 days and the “Neutrophil Count (ANC) UL” value was determined as 10 days. For the same compound, in series [2], the “Platelets LL” value was 7 days and the “Platelets UL” value is recorded as 10 days. In series [3], the “Hemoglobin (Hgb) LL” value turned out to be 7 days and the “Hemoglobin (Hgb) UL” value came to 10 days.
Turning to `CC(C)c1c(C(=O)Nc2ccccc2)c(-c2ccccc2)c(-c2ccc(F)cc2)n1CC[C@@H](O)C[C@@H](O)CC(=O)O` [Lipitor], the “Current Level of Efficacy/CLTEM1” value in series [4] (current cycle Lipitor 280 with aerobics 168/week, marker Dec. 05, 2004) came out at 120. The “Previous Level of Efficacy/PLTEM1” value in series [4] (previous cycle Lipitor 210 with aerobics 140/week) is on record as 150. Besides, the “Current Level of Efficacy CLTEM1” value in series [5] (current cycle Lipitor 300.00 with aerobics 168/week and diet 182/week, marker Dec. 05, 2004) is recorded as 122. In series [5] (previous cycle Lipitor 220.00 with aerobics 140/week and diet 210/week), the “Previous Level of/PLTEM1” value was determined as 140.
For `CC(=O)CC(c1ccccc1)c1c(O)c2ccccc2oc1=O` (centres unmarked) [Warfarin Sodium], the “Current Level of Efficacy/CLTE” value in series [6] (Comparison Cycle column) and in series [6] (Current Cycle column) was 3.80 in each case. Further, the “Previous Level of Efficacy/PLTE” value in series [6] (Comparison Cycle column) and in series [6] (Current Cycle column) was 4.50 in each case.
